The values below come from patent US7960543B2, “Nucleoside or nucleotide derivative and use thereof” (RIKEN, priority 2004, dated 2011).

Several values for one entry are separate records, joined by “and”; a condition that tells them apart may be missing. Equal entries are not always repeated. Where two headings read alike, the source gives them in different places.

For data set [1] the following is noted: for Emission maxima: excited at the wavelength printed in the cell (493, 553 or 320 nm), pH 7.0, 25° C.; for Quantum yield: pH 7.0 aqueous solution, standard fluorescein in 0.1 N NaOH, φs=0.90. The protocol: A 3×3 mm cell was used for measurement, and the following settings were used to measure each spectrum: response 1.0 s, sensitivity low, and slit width fixed at 3 nm for both excitation and fluorescence sides.
The quantum yield (φ) was calculated according to the following equation and fluorescein (1.0 μM in 0.1 N NaOH, φs=0.90) was used as a standard. φ=(F·As·η^2·φs)/(A·Fs·η0^2)
F: Area of each fluorescence spectrum
A: Absorbance at the excitation wavelength
η: Refractive index (water: 1.33)

In data set [2] the target is T1, T7 RNA polymerase (Escherichia phage T7, UniProt P00573). Conditions: compared to transcription using the natural template and substrates only; 1 mM modified yTP, 37° C., 3 hours. The protocol:
More specifically, double-stranded template DNA (10 μM) was annealed in 10 mM Tris-HCl buffer (pH 7.6) containing 10 mM NaCl under the following conditions: 95° C. for 3 minutes→50° C. for 3 minutes→slow cooling to 4° C. T7 transcription reaction was accomplished in a reaction solution (20 μl) containing 40 mM Tris-HCl buffer (pH 8.0), 24 mM MgCl2, 2 mM spermidine, 5 mM DTT, 0.01% Triton X-100, 2 μCi [y-^32P]GTP, 1 mM NTPs, 1 mM modified yTP, 2 μM template DNA, and 50 units of T7 RNA polymerase (Takara).
The template DNA used was a duplex formed between T7 promoter-containing 35-mer template strand and T7 promoter non-template strand 21-mer, which has been modified to have s or v introduced at a single position within the template.
where N(5)=v (the present invention), s (the present invention) or A (control)
where N′(13)=NH2-y, FAM-y or TAMRA-y
The modified substrate was added in the same amount as the natural substrates and reacted at 37° C. for 3 hours, followed by addition of an electrophoresis dye solution (20 μl) containing 10 M urea to stop the reaction. The reaction solution was heated at 75° C. for 3 minutes and then electrophoresed on a 20% polyacrylamide-7 M urea gel. The transcripts were analyzed with a bio-imaging analyzer.

The target in data set [3] is T1, T7 RNA polymerase. Conditions: RNA 17-mer transcript, RNase T2 digest, [α-32P]ATP.
Experimental: The same T7 RNA polymerase-mediated transcription reaction as shown in Example 11 was performed in a reaction solution containing 40 mM Tris-HCl buffer (pH 8.0), 24 mM MgCl2, 2 mM spermidine, 5 mM DTT, 0.01% Triton X-100, 2 μCi [α-^32P]ATP, 1 mM NTPs, 1 mM modified-yTP, 2 μM template DNA, and 50 units of T7 RNA polymerase (Takara). After electrophoresis on a 15% polyacrylamide-7 M urea gel, the transcript was eluted from the gel and collected by ethanol precipitation in the presence of tRNA (0.25 OD).
To this tRNA-containing solution (8.5 μl), RNase T2 (1.5 μl, 1 unit/μl) was added and reacted overnight at 37° C. 0.3 μl of this solution was spotted on a TLC plate (Merck, 10 cm×10 cm) and developed two-dimensionally. As a developing solution, isobutyric acid:concentrated aqueous ammonia:water=66:1:33 (v/v/v) was used for the first dimension and 2-propanol:hydrochloric acid:water=65:10:25 (v/v/v) was used for the second dimension. The developed spots were detected and analyzed with a bio-imaging analyzer.
The mark [4] stands for this setting: 1.0 μM in 10 mM sodium phosphate buffer (pH 7.0), 25° C.

T1 sequence (P00573 whole entry): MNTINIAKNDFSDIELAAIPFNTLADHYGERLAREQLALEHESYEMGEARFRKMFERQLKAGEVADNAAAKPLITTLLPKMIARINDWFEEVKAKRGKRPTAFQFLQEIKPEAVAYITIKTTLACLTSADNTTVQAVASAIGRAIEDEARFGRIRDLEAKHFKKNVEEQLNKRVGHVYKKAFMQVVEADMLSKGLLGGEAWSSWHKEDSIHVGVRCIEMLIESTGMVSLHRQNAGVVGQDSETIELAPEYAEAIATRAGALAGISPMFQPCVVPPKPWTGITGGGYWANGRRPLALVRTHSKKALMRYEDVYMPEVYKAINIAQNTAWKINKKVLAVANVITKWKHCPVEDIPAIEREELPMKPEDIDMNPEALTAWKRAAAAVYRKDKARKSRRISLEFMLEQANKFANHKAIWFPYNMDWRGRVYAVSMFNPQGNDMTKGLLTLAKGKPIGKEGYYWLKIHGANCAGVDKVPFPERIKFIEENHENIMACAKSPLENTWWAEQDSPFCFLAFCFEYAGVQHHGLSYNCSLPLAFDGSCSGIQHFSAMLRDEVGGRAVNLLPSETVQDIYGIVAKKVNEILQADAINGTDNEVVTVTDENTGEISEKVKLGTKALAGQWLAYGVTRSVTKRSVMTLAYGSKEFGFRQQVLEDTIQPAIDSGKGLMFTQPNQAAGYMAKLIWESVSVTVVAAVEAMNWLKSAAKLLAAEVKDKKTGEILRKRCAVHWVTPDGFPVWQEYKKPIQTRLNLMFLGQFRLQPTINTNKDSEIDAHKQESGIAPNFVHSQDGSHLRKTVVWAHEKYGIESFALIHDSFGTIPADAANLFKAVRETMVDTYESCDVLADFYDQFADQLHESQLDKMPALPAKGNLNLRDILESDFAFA

In the case of `O=C(NCC#Cc1c[nH]c(=O)c([C@@H]2O[C@H](COP(=O)(O)OP(=O)(O)OP(=O)(O)O)[C@@H](O)[C@H]2O)c1)c1ccc2c(c1)C(=O)OC21c2ccc(O)cc2Oc2cc(O)ccc21` [short FAM-yTP, 3-(β-D-ribofuranosyl)-5-[3-(fluorescein-5-carboxamido)-1-propynyl]-2-oxo(1H)pyridine 5′-triphosphate], in data set [1] (setting [4]), the Absorption maxima was determined as 493 nm and the “ε at absorption maximum” value was 70,000. In data set [1], the Emission maxima is 521 (excited at 493 nm) and the Quantum yield worked out at 0.67.

Take `CN(C)c1ccc2c(-c3cc(C(=O)NCCCCCC(=O)NCC#Cc4c[nH]c(=O)c([C@@H]5O[C@H](COP(=O)(O)OP(=O)(O)OP(=O)(O)O)[C@@H](O)[C@H]5O)c4)ccc3C(=O)[O-])c3ccc(N(C)C)cc3[o+]c2c1` [TAMRA-yTP, 3-(β-D-ribofuranosyl)-5-[3-[6-(tetramethylrhodamine-5-carboxamido)hexanamido]-1-propynyl]-2-oxo(1H)pyridine 5′-triphosphate]: in data set [1] (pH 7), the Absorption maxima was 553 nm and 553 (ε 85,000) nm; the “ε at absorption maximum” value is on record as 553 (ε 85,000). The Quantum yield in data set [1] is reported as 0.50. Moreover, the “yield of RNA incorporating the modified substrate” value at T7 RNA polymerase [2] is on record as 61%.

For the compound `NCCCCCC(=O)NCC#Cc1c[nH]c(=O)c([C@@H]2O[C@H](COP(=O)(O)OP(=O)(O)OP(=O)(O)O)[C@@H](O)[C@H]2O)c1` [NH2-yTP, 3-(β-D-ribofuranosyl)-5-[3-(6-aminohexanamido)-1-propynyl]-2-oxo(1H)pyridine 5′-triphosphate], the “incorporation opposite v in the template” value at T7 RNA polymerase [3] was “specific incorporation”. Further, on T7 RNA polymerase [2], the “yield of RNA incorporating the modified substrate” value was “same yield”.

Turning to `O=C(CCCCCNC(=O)c1ccc2c(c1)C(=O)OC21c2ccc(O)cc2Oc2cc(O)ccc21)NCC#Cc1c[nH]c(=O)c([C@@H]2O[C@H](COP(=O)(O)OP(=O)(O)OP(=O)(O)O)[C@@H](O)[C@H]2O)c1` [FAM-yTP, 3-(β-D-ribofuranosyl)-5-[3-[6-(fluorescein-5-carboxamido)hexanamido]-1-propynyl]-2-oxo(1H)pyridine 5′-triphosphate], in data set [1] (setting [4]), the Absorption maxima was found to be 493 nm and the “ε at absorption maximum” value is recorded as 62,000. The compound also yielded a Quantum yield in data set [1] of 0.55. Also, the “yield of RNA incorporating the modified substrate” value at T7 RNA polymerase [2] was 76%.

For `CN(C)c1cccc2c(S(=O)(=O)NCCCCCC(=O)NCCCCCC(=O)NCC#Cc3c[nH]c(=O)c([C@@H]4O[C@H](COP(=O)(O)OP(=O)(O)OP(=O)(O)O)[C@@H](O)[C@H]4O)c3)cccc12` [Dansyl-x-yTP, 3-(β-D-ribofuranosyl)-5-[3-[6-[6-[(5-dimethylaminonaphthalene-1-sulfonyl)amino]hexanamido]hexanamido]-1-propynyl]-2-oxo(1H)pyridine 5′-triphosphate], in data set [1] (setting [4]), the Absorption maxima is 319 nm and 252 nm. Also, in data set [1], the Emission maxima is 387 nm and 541 nm; the Quantum yield is reported as 0.014.
